The values below come from patent US20250313548A1 (Actio Biosciences, Inc., priority 2023, published 2025).

A word on the IC50: it is the midpoint of a concentration-inhibition curve. Low values mean greater potency, high ones weaker potency.

Bounds are passed on as bounds.

Sequence of human, KCNT1 (Q5JUK3 whole entry): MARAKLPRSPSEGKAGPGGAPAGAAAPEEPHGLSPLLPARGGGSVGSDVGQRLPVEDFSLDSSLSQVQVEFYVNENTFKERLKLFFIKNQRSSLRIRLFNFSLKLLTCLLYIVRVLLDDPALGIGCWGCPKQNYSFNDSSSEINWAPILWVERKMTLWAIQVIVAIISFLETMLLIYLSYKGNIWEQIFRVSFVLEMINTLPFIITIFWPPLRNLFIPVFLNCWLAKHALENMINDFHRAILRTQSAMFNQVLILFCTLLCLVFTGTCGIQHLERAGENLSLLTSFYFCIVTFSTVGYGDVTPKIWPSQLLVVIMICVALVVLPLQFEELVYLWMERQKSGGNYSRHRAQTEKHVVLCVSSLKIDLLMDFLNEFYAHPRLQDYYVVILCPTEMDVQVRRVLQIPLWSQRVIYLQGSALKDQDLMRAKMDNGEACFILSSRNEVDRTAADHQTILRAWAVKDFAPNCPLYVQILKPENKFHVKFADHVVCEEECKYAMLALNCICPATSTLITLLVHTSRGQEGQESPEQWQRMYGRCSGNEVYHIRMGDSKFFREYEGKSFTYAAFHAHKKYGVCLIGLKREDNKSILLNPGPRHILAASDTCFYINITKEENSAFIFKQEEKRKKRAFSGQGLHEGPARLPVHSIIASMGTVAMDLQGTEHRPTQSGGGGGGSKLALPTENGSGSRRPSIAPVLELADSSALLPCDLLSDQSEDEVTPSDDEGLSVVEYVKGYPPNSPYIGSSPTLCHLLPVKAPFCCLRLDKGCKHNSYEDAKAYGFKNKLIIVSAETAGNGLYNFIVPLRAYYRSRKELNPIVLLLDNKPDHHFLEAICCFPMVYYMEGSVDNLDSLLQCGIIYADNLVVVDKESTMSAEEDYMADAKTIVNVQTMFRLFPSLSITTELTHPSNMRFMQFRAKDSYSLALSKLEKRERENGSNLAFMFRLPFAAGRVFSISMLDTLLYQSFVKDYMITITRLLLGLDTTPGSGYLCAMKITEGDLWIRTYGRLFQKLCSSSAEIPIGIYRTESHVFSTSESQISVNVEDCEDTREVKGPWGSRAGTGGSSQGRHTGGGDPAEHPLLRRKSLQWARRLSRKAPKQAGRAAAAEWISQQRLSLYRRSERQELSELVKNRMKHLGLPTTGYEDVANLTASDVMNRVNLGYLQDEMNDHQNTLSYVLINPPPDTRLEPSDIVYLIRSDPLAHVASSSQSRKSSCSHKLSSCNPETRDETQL

This assay addresses human, KCNT1 (Homo sapiens (Human), UniProt Q5JUK3). The assay can be described thus: FLIPR Tl/K Flux Assay. The settings on record: HEK293 cells stably expressing human KCNT1; Tl+ flux stimulated with EC80 of agonist Loxapine. The format is cell-based. The essentials: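 HEK293 cells stably expressing human KCNT1 were loaded with FLIPR potassium dye in HEPES/HBSS pH 7.4 with 5 mM probenecid, 1 h at 25 °C, then given test compound for 30 min at 25 °C. Tl+ flux was triggered with chloride-free buffer containing Tl+ and EC80 loxapine and read 160 s. IC50 came from Hill fits of % inhibition.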
Compound `N#Cc1cccc(C(=O)N[C@H]2CCCn3nc(-c4cc(C(F)(F)F)ncc4F)cc32)c1` [Compound I-302a, (S)-3-Cyano-N-(2-(5-fluoro-2-(trifluoromethyl)pyridin-4-yl)-4,5,6,7-tetrahydropyrazolo[1,5-a]pyridin-4-yl)benzamide] yielded an IC50 of under 250 nM.

On to `CC(C)(O)c1cc(F)cc(C(=O)N[C@H]2CCCn3nc(-c4ccnc(C(F)(F)F)c4)cc32)c1` [Compound I-581a], for which the IC50 is under 250 nM.

Compound `O=C(N[C@H]1CCCn2nc(-c3ccnc(C(F)(F)F)c3)nc21)c1cc(F)cc(F)c1` [Compound I-234a, (S)-3,5-Difluoro-N-(2-(2-(trifluoromethyl)pyridin-4-yl)-5,6,7,8-tetrahydro-[1,2,4]triazolo[1,5-a]pyridin-8-yl)benzamide] gave an IC50 of under 250 nM.

In turn, `Cc1nc(C(=O)N[C@H]2CCn3nc(-c4ccnc(C5CC5)c4)cc32)n(C)n1` [Compound I-218a, (S)-N-(2-(2-Cyclopropylpyridin-4-yl)-5,6-dihydro-4H-pyrrolo[1,2-b]pyrazol-4-yl)-1,3-dimethyl-1H-1,2,4-triazole-5-carboxamide] had an IC50 of 250 to 500 nM.

Compound `Cn1nc(C(F)(F)F)cc1C(=O)N[C@H]1CCCCc2nn(-c3ccnc(C4CC4)c3)cc21` [Compound I-56a] registered an IC50 of under 250 nM.

`O=C(N[C@H]1CCCc2nn(-c3ccnc(C(F)(F)F)c3)cc21)c1cc(C(F)(F)F)nn1C1CC1` [Compound I-9a, (S)-1-Cyclopropyl-3-(trifluoromethyl)-N-(2-(2-(trifluoromethyl)pyridin-4-yl)-4,5,6,7-tetrahydro-2H-indazol-4-yl)-1H-pyrazole-5-carboxamide]: the IC50 is under 250 nM.

For `COc1cc(C(=O)N[C@H]2CCCn3nc(-c4ccnc(C(F)(F)F)c4)cc32)c(F)cn1` [Compound I-420a], the IC50 is under 250 nM.

The compound `CCOc1cc(-n2cc3c(n2)CCCC3NC(=O)c2cc(C(F)(F)F)ccc2C)ccn1` (racemic) [Compound I-28, (rac)-N-(2-(2-Ethoxypyridin-4-yl)-4,5,6,7-tetrahydro-2H-indazol-4-yl)-2-methyl-5-(trifluoromethyl)benzamide] came in with an IC50 of 250 to 500 nM.

Turning to `COc1cc(C(=O)N[C@H]2CCn3nc(-c4ccnc(C(F)(F)F)c4)cc32)ccn1` [Compound I-331a, (S)-2-Methoxy-N-(2-(2-(trifluoromethyl)pyridin-4-yl)-5,6-dihydro-4H-pyrrolo[1,2-b]pyrazol-4-yl)isonicotinamide], the IC50 was under 250 nM.

In turn, `N#Cc1cc(Cl)cc(C(=O)N[C@H]2CCCn3nc(-c4ccnc(C(F)(F)F)c4)cc32)c1` [Compound I-458a] registered an IC50 of under 250 nM.

In turn, `O=C(N[C@H]1CCn2nc(-c3ccnc(C4CC4)c3)cc21)C12CC(CC(F)(F)F)(C1)C2` [Compound I-584a, (S)-N-(2-(2-Cyclopropylpyridin-4-yl)-5,6-dihydro-4H-pyrrolo[1,2-b]pyrazol-4-yl)-3-(2,2,2-trifluoroethyl)bicyclo[1.1.1]pentane-1-carboxamide] displayed an IC50 of under 250 nM.

In turn, `Cn1nc(C(F)(F)F)nc1C(=O)N[C@H]1CCCn2nc(-c3ccnc(C(C)(F)F)c3)cc21` [Compound I-551a, (S)-N-(2-(2-(1,1-Difluoroethyl)pyridin-4-yl)-4,5,6,7-tetrahydropyrazolo[1,5-a]pyridin-4-yl)-1-methyl-3-(trifluoromethyl)-1H-1,2,4-triazole-5-carboxamide] registered an IC50 of under 250 nM.

In turn, `O=C(N[C@H]1CCCn2nc(-c3ccnc(C(F)(F)F)c3)cc21)c1ccn(C(F)(F)F)n1` [Compound I-382a] came in with an IC50 of under 250 nM.

Turning to `CC(F)(F)C12CC(C(=O)N[C@H]3CCn4nc(-c5cc(C(F)(F)F)ncc5F)cc43)(C1)C2` [Compound I-526a, (S)-3-(1,1-Difluoroethyl)-N-(2-(5-fluoro-2-(trifluoromethyl)pyridin-4-yl)-5,6-dihydro-4H-pyrrolo[1,2-b]pyrazol-4-yl)bicyclo[1.1.1]pentane-1-carboxamide], the IC50 is under 250 nM.

Take `CC(C)(C)CC(=O)N[C@H]1CCc2nn(-c3ccnc(C(F)(F)F)c3)cc21` [Compound I-103a]: the IC50 was under 250 nM.

`Cc1nc(C(=O)N[C@H]2CCCc3oc(-c4ccnc(C5CC5)c4)nc32)n(C)n1` [Compound I-227a, (S)-N-(2-(2-Cyclopropylpyridin-4-yl)-4,5,6,7-tetrahydrobenzo[d]oxazol-4-yl)-1,3-dimethyl-1H-1,2,4-triazole-5-carboxamide] displayed an IC50 of over 1000 nM.

Compound `Cn1nc(C(F)(F)F)nc1C(=O)N[C@H]1CCc2nn(-c3ccnc(C(F)(F)F)c3)cc21` [Compound I-308a, (S)-1-Methyl-3-(trifluoromethyl)-N-(2-(2-(trifluoromethyl)pyridin-4-yl)-2,4,5,6-tetrahydrocyclopenta[c]pyrazol-4-yl)-1H-1,2,4-triazole-5-carboxamide] showed an IC50 of under 250 nM.

The compound `Cn1nc(C(F)(F)F)cc1C(=O)N[C@H]1CCc2nn(-c3ccnc(C(C)(F)F)c3)cc21` [Compound I-77a, (S)—N-(2-(2-(1,1-Difluoroethyl)pyridin-4-yl)-2,4,5,6-tetrahydrocyclopenta[c]pyrazol-4-yl)-1-methyl-3-(trifluoromethyl)-1H-pyrazole-5-carboxamide] registered an IC50 of under 250 nM.

In the case of `CC(C)n1nc(C(F)(F)F)cc1C(=O)NC1CCCc2nn(-c3ccnc(C(F)(F)F)c3)cc21` (racemic) [Compound I-8, (rac)-1-Isopropyl-3-(trifluoromethyl)-N-(2-(2-(trifluoromethyl)pyridin-4-yl)-4,5,6,7-tetrahydro-2H-indazol-4-yl)-1H-pyrazole-5-carboxamide], the IC50 is under 250 nM.

`Cn1nc(C(F)(F)F)nc1C(=O)N[C@H]1CCn2nc(-c3ccnc(C(C)(F)F)c3)cc21` [Compound I-146a, (S)—N-(2-(2-(1,1-Difluoroethyl)pyridin-4-yl)-5,6-dihydro-4H-pyrrolo[1,2-b]pyrazol-4-yl)-1-methyl-3-(trifluoromethyl)-1H-1,2,4-triazole-5-carboxamide] displayed an IC50 of under 250 nM.

`Cc1cnc(C(F)(F)F)cc1-c1nc2c(o1)CCC[C@@H]2NC(=O)c1cc(C(F)(F)F)nn1C` [Compound I-178a, (S)-1-Methyl-N-(2-(5-methyl-2-(trifluoromethyl)pyridin-4-yl)-4,5,6,7-tetrahydrobenzo[d]oxazol-4-yl)-3-(trifluoromethyl)-1H-pyrazole-5-carboxamide] registered an IC50 of under 250 nM.

The compound `Cc1cc(C(=O)N[C@H]2CCCc3oc(-c4ccnc(C(F)(F)F)c4)nc32)cc(C(F)(F)F)c1` [Compound I-250a, (S)-3-Methyl-5-(trifluoromethyl)-N-(2-(2-(trifluoromethyl)pyridin-4-yl)-4,5,6,7-tetrahydrobenzo[d]oxazol-4-yl)benzamide] had an IC50 of under 250 nM.

The compound `COc1cc(C#N)cc(C(=O)N[C@H]2CCn3nc(-c4ccnc(C(F)(F)F)c4)cc32)c1` [Compound I-258a, (S)-3-Cyano-5-methoxy-N-(2-(2-(trifluoromethyl)pyridin-4-yl)-5,6-dihydro-4H-pyrrolo[1,2-b]pyrazol-4-yl)benzamide] came in with an IC50 of under 250 nM.

In the case of `COc1cc(C(=O)N[C@H]2CCCn3nc(-c4ccnc(C(F)(F)F)c4)cc32)cc(OC)n1` [Compound I-124a, (S)-2,6-Dimethoxy-N-(2-(2-(trifluoromethyl)pyridin-4-yl)-4,5,6,7-tetrahydropyrazolo[1,5-a]pyridin-4-yl)isonicotinamide], the IC50 is under 250 nM.
